# “Also recorded” adds a separate entry of the source.
# Columns and labels:
# [1] = test system: Escherichia coli (WP2 uvrA pKM101); assay: Bacterial mutation test in Escherichia coli; type: cell-based; conditions: up to 5000 μg/plate, absence and presence of rat liver S-9
# Protocol: These conditions included treatments at concentrations up to 5000 μg/plate (the maximum recommended concentration according to current regulatory guidelines), in the absence and in the presence of a rat liver metabolic activation system (S-9).
# [2] = test system: patients with postpartum depression (PPD); assay: Clinical trial of inhaled 5-MeO-DMT in postpartum depression; conditions: one PPD patient
# Protocol: The single-arm, open-label clinical trial will involve 15 adult female patients with clinically diagnosed postpartum depression (PPD).
# The second dose (12 mg) will only be administered if: • a. A peak experience (total score of • 75) has not been achieved following the 6 mg dose, and • b. The 6 mg dose was safe and well-tolerated according to the investigator, • c. Any psychoactive effects (PsE) of the prior dose have subsided, and • d. Pre-dose vital parameters and forced expiratory volume in one second (FEV1) are in normal range, or if outside of the normal range, are not clinically significant according to the investigator. • 3. Similarly, a third dose (18 mg) will only be administered if: • a. A peak experience (total score of • 75) has not been achieved following the 12 mg dose, and • b. The 12 mg dose was safe and well-tolerated according to the investigator, and • c. Any PsE of the prior dose have subsided, and • d. Pre-dose vital parameters and forced expiratory volume in one second (FEV1) are in normal range, or if outside of the normal range, are not clinically significant according to the investigator.
# The patients will be assessed for a peak psychedelic experience (based on a patient-scored visual analogue scale, the PE scale), sedation, and other endpoints after dosing.
# Follow-up visits are planned for Day 1, and Day 7 after the dosing day.
# The following criteria must be met by all patients considered for clinical trial participation: • 1. Is female and in the age range between 18 and 45 years (inclusive) at screening. • 2. Has a body mass index (BMI) in the range of 18.5 and 35 kg/m^2 (inclusive) at screening. • 3. Meets the trial criteria for PPD as assessed by a trial psychiatrist or registered psychologist: • a. Diagnosis of Major Depressive Disorder without psychotic features, confirmed by the Mini-International Neuropsychiatric Interview (MINI), with peri-partum onset that began no earlier than gestation and no later than the first 4 weeks postpartum. • b. Has a Montgomery-Asberg Depression Rating Scale (MADRS) total score of equal to or greater than 28 at screening and pre-dose on Day 0. • 6. […] Patients must have a negative pregnancy test at screening and on the pre-test day (Day −1). • 5. Is willing to delay start of other antidepressant or anxiety medication until after the end of the trial at Day 7 and agrees to keep any psychotherapy unchanged during the trial.
# A potential patient who meets any of the following key exclusion criteria will be excluded from participation in this trial: • 1. Has, based on history, psychiatric assessment, and evaluation of the MINI, a current or prior diagnosis of bipolar disorder, a manic or hypomanic episode, a psychotic disorder, Major Depressive Disorder (MDD) or other mood disorder with psychotic features, obsessive compulsive disorder, post-traumatic stress disorder (PTSD), autism spectrum disorder, borderline personality disorder, schizophrenia, delusional disorder, paranoid personality disorder, schizoaffective disorder, clinically significant intellectual disability, or any other psychiatric comorbidity that renders the patient unsuitable for the trial according to the investigator's judgment. • 2. Has one or more first or second degree relatives with a current or previously diagnosed bipolar disorder, psychotic disorder or other mood disorder (including MDD) with psychotic features. • 3. Is in the judgement of a trial psychiatrist or registered psychologist, at significant risk for suicide based on history, psychiatric assessment, and evaluation of suicidal ideation and suicidal behaviour based on the Columbia-Suicide Severity Rating Scale (C-SSRS). • 4. Has taken anti-depressive medication within 14 days or 5 half-lives (whichever is longer) prior to dosing (exception: within the last 5 weeks in the case of fluoxetine). • 5.
compound,measurement,setting,value
COc1ccc2[nH]cc(CCN(C)C)c2c1 [5-MeO-DMT],Mutation induction,[1],did not induce mutation
same,"ECG (3 hours), safety laboratory analyses (7 days), CADSS (3 hours, 1 day, 7 days)",[2],unremarkable
same,MADRS remission (MADRS total score equal or less than 10),[2],fulfilled
same,MADRS response (at least 50% improvement from baseline),[2],fulfilled
same,"Reported adverse events (cramping left abdominal pain and headache, Day 0)",[2],"mild, short-lasting and resolved spontaneously"
same,Total MADRS improvement,"[2]; 2 hr, baseline 29",24
same,Total MADRS score,"[2]; 2 hr, baseline 29",5
same,MADRS Lassitude score,"[2]; Day 1, baseline 3",0
same,BPRS Tension improvement,"[2]; Day 1, baseline 6",5
same,Total MADRS improvement,"[2]; Day 1, baseline 29",29
same,Total MADRS score,"[2]; Day 1, baseline 29",0
same,BIMF item 16 (I worry about how other people judge me (as a mother)) score,"[2]; Day 7, Day 0 score 3",5
same,BIMF item 10 (I trust my own feelings (instincts) when taking care of my baby) score,"[2]; Day 7, Day 0 score 5",6
same,BIMF functional domain Adjustment score,"[2]; Day 7, Day 0 score 5, maximum possible 12",6
same,BIMF functional domain Self Care score,"[2]; Day 7, Day 0 score 9, maximum possible 18",13
same,BIMF functional domain Infant Care score,"[2]; Day 7, Day 0 score 12, maximum possible 12",12
same,BIMF functional domain Mother-Child Interaction score,"[2]; Day 7, Day 0 score 15, maximum possible 18",17
same,BIMF functional domain Social Support score,"[2]; Day 7, Day 0 score 17, maximum possible 18",18
same,BIMF functional domain Management score,"[2]; Day 7, Day 0 score 28, maximum possible 36",33
same,BIMF functional domain Psychological Well-being score,"[2]; Day 7, Day 0 score 44, maximum possible 60",53
same,Total MADRS improvement,"[2]; Day 7, baseline 29",28
same,Total MADRS score,"[2]; Day 7, baseline 29",1
same,BIMF total score percentage improvement,"[2]; Day 7, from 92 to 105 (possible total 120)",14%
same,BIMF TOTAL Δ (Day 7),[2]; Day 7 vs Day 0,13
same,BIMF functional domain Adjustment % improvement,[2]; Day 7 vs Day 0,20.00%
same,BIMF functional domain Infant Care % improvement,[2]; Day 7 vs Day 0,0.00%
same,BIMF functional domain Management % improvement,[2]; Day 7 vs Day 0,18%
same,BIMF functional domain Self Care % improvement,[2]; Day 7 vs Day 0,44%
same,Time to clinical remission after administration,[2]; IDR,≤ 2 h
same,Tolerability of inhaled 5-MeO-DMT,[2]; IDR 6 mg then 12 mg,well tolerated with no inhalation-related adverse events; also recorded: well tolerated
same,BPRS Tension improvement,"[2]; discharge, baseline 6",5
same,Changes in vital parameters,[2]; shortly after administration,"temporary, clinically non-relevant increase in heart rate and blood pressure"

# Reference: patent US20250241893A1, “TREATMENT OF COGNITIVE DYSFUNCTION” (GH RESEARCH IRELAND LIMITED, priority 2022, published 2025)
